The text below walks through data of US6774211B1, “Peptide antiangiogenic drugs” (Abbott Laboratories, priority 1998, dated 2004).

Where a SMILES comes first, the peptide text is derived from it. [ ]: non-standard residue; d: D form. Nva = CCC[C@H](N)C(=O)O; Sar = CNCC(=O)O

For one assay, the system named is Human Microvascular Endothelial Cells (HMVEC). The assay can be described thus: Human microvascular endothelial cell (HMVEC) migration assay, modified Boyden chamber. It is filed as cell-based. The conditions noted are these: 10 nM; migration stimulated with 15 ng/ml bFGF/VEGF; compared to positive control. The protocol: The human microvascular endothelial (HMVEC) migration assay was run according to the procedure of S. S. Tolsma, O. V. Volpert, D. J. Good, W. F. Frazier, P. J. Polverini and N. Bouck, J. Cell Biol. 122, 497-511 (1993).
The HMVEC migration assay was carried out using Human Microvascular Endothelial Cells-Dermal (single donor) and Human Microvascular Endothelial Cells, (neonatal). The BCE or HMVEC cells were starved overnight in DME containing 0.1% bovine serum albumin (BSA). Cells were then harvested with trypsin and resuspended in DME with 0.1% BSA at a concentration of 1.5×10^6 cells per ml. Cells were added to the bottom of a 48 well modified Boyden chamber (Nucleopore Corporation, Cabin John, Md.). The chamber was assembled and inverted, and cells were allowed to attach for 2 hours at 37° C. to polycarbonate chemotaxis membranes (5 μm pore size) that had been soaked in 0.1% gelatin overnight and dried. The chamber was then reinverted, and test substances (total volume of 50 μl), including activators, 15 ng/ml bFGF/VEGF, were added to the wells of the upper chamber. The apparatus was incubated for 4 hours at 37° C. Membranes were recovered, fixed and stained (Diff Quick, Fisher Scientific) and the number of cells that had migrated to the upper chamber per […] high power fields counted. Background migration to DME+0.1 BSA was subtracted and the data reported as the number of cells migrated per 10 high power fields (400×) or, when results from multiple experiments were combined, as the percent inhibition of migration compared to a positive control.
Consider `CCC[C@H](NC(=O)[C@@H](NC(=O)[C@H](NC(=O)[C@@H](NC(=O)CNC(=O)CN(C)C(C)=O)C(C)C)[C@H](C)CC)[C@@H](C)O)C(=O)N[C@H](C(=O)N[C@@H](CCCNC(=N)N)C(=O)N1CCC[C@H]1C(=O)NCC)[C@@H](C)CC` [Example 1, N-Ac-Sar-Gly-Val-D-Ile-Thr-Nva-Ile-Arg-ProNHCH2CH3] (Ac-[Sar]GV[dI]T[Nva]IRP-NHEt), for which the “% Inhib. @ 10 nM” value is recorded as 76.9%.

In the case of “N-(Tetrahydro-2-furoyl)-Sar-Gly-Val-D-Ile-Thr-Nva-Ile-Arg-ProNHCH2CH3 [Example 61]”, the “% Inhib. @ 10 nM” value came out at 83.7%.

“N-Ac-Sar-Gly-Val-D-Cha-Thr-Nva-Ile-Arg-ProNHCH2CH3 [Example 28]”: the “% Inhib. @ 10 nM” value is recorded as 47.0%.

Regarding “N-Ac-Sar-Gly-Val-D-Ile-Thr-Gln-Ile-Arg-ProNHCH2CH3 [Example 43]”, the “% Inhib. @ 10 nM” value stood at 94.1%.

For the molecule “N-Ac-Sar-Gly-Val-D-Ile-Thr-Nva-Ile-Arg-ProNHethyl-(1-pyrrolidine) [Example 5]”, the “% Inhib. @ 10 nM” value was determined as 87.2%.

“N-Ac-Sar-Gly-Val-D-Val-Thr-Nva-Ile-Arg-ProNHCH2CH3 [Example 18]”: the “% Inhib. @ 10 nM” value is given as 51.4%.

Staying with this assay, now noted: 20 nM; migration stimulated with 15 ng/ml bFGF/VEGF; compared to positive control.
With `CCC[C@H](NC(=O)[C@@H](NC(=O)[C@H](NC(=O)[C@@H](NC(=O)CNC(=O)CN(C)C(C)=O)C(C)C)[C@H](C)CC)[C@@H](C)O)C(=O)N[C@H](C(=O)N[C@@H](CCCNC(=N)N)C(=O)N1CCC[C@H]1C(=O)NCC)[C@@H](C)CC` [Example 1, N-Ac-Sar-Gly-Val-D-Ile-Thr-Nva-Ile-Arg-ProNHCH2CH3] (Ac-[Sar]GV[dI]T[Nva]IRP-NHEt), the “% Inhib. @ 20 nM” value is on record as 87.3%.

Consider “H-Sar-Gly-Val-D-Ile-Thr-Nva-Ile-Arg-ProNHCH2CH3 [Example 66]”, for which the “% Inhib. @ 20 nM” value turned out to be 76.1%.

Regarding “N-(2-Furoyl)-Sar-Gly-Val-D-Ile-Thr-Nva-Ile-Arg-ProNHCH2CH3 [Example 59]”, the “% Inhib. @ 20 nM” value came out at 82.3%.

As for “N-(2-Me-Nicotinyl)-Sar-Gly-Val-D-Ile-Thr-Nva-Ile-Arg-ProNHCH2CH3 [Example 53]”, the “% Inhib. @ 20 nM” value stood at 76.7%.

On to “N-Ac-Sar-Gly-Val-D-Ile-Thr-Ala-Ile-Arg-ProNHCH2CH3 [Example 46]”, for which the “% Inhib. @ 20 nM” value is listed as 77.5%.

“N-Ac-Sar-Gly-Val-D-Ile-Thr-Allylgly-Ile-Arg-ProNHCH2CH3 [Example 49]”: the “% Inhib. @ 20 nM” value amounted to 83.4%.

“N-Ac-Sar-Gly-Val-D-Ile-Thr-DNva-Ile-Arg-ProNHCH2CH3 [Example 42]”: the “% Inhib. @ 20 nM” value is reported as 60.2%.

Regarding “N-Ac-Sar-Gly-Val-D-Ile-Thr-Met-Ile-Arg-ProNHCH2CH3 (Ac-[Sar]GV[dI]TMIRP-NHEt; SMILES CCNC(=O)[C@@H]1CCCN1C(=O)[C@H](CCCNC(=N)N)NC(=O)[C@@H](NC(=O)[C@H](CCSC)NC(=O)[C@@H](NC(=O)[C@H](NC(=O)[C@@H](NC(=O)CNC(=O)CN(C)C(C)=O)C(C)C)[C@H](C)CC)[C@@H](C)O)[C@@H](C)CC) [Example 51]”, the “% Inhib. @ 20 nM” value is on record as 67.0%.

As for “N-Ac-Sar-Gly-Val-D-Ile-Thr-Nva-Ile-Arg-ProNHCH2CH2OCH3 [Example 11]”, the “% Inhib. @ 20 nM” value was determined as 70.4%.

In the case of “N-Ac-Sar-Gly-Val-D-Ile-Thr-Nva-Ile-Arg-ProNHCH(CH3)2 [Example 4]”, the “% Inhib. @ 20 nM” value stood at 71.3%.

In the case of “N-Ac-Sar-Gly-Val-D-Ile-Thr-Val-Ile-Arg-ProNHCH2CH3 (Ac-[Sar]GV[dI]TVIRP-NHEt) [Example 47]”, the “% Inhib. @ 20 nM” value turned out to be 69.7%.

In the case of “N-Butyryl-Sar-Gly-Val-D-Ile-Thr-Nva-Ile-Arg-ProNHCH2CH3 [Example 60]”, the “% Inhib. @ 20 nM” value came to 75.3%.

As to “N-MeOacetyl-Sar-Gly-Val-D-Ile-Thr-Nva-Ile-Arg-ProNHCH2CH3 [Example 57]”, the “% Inhib. @ 20 nM” value turned out to be 56.6%.

On to “N-Nicotinyl-Sar-Gly-Val-D-Ile-Thr-Nva-Ile-Arg-ProNHCH2CH3 [Example 55]”, for which the “% Inhib. @ 20 nM” value is 59.2%.

“N-Propionyl-Sar-Gly-Val-D-Ile-Thr-Nva-Ile-Arg-ProNHCH2CH3 [Example 56]”: the “% Inhib. @ 20 nM” value is on record as 49.9%.

Consider “N-Shikimyl-Sar-Gly-Val-D-Ile-Thr-Nva-Ile-Arg-ProNHCH2CH3 [Example 58]”, for which the “% Inhib. @ 20 nM” value was 68.8%.

As to “N-Succinyl-Sar-Gly-Val-D-Ile-Thr-Nva-Ile-Arg-ProNHCH2CH3 [Example 54]”, the “% Inhib. @ 20 nM” value is 81.3%.
